Test results as given in the NIST ThermoML archive (doi:10.1021/je800579j).
± gives the expanded uncertainty stated by the source.

Experiment: refractive index (Na D-line) (dimensionless); xn = mol fraction of the nth substance listed
Conditions: Liquid, Standard Abbe refractometry

C1COCCO1 [1,4-dioxane] + Cc1ccccc1
refractive index
Conditions | 288.15 K | 293.15 K | 298.15 K | 303.15 K | 308.15 K | 313.15 K | 318.15 K
x1 = 0.0688 | 1.4955 ± 0.0007 | 1.4927 ± 0.0007 | 1.4899 ± 0.0007 | 1.487 ± 0.0007 | 1.4841 ± 0.0007 | 1.4812 ± 0.0007 | 1.4783 ± 0.0007
x1 = 0.1373 | 1.4914 ± 0.0007 | 1.4886 ± 0.0007 | 1.4858 ± 0.0007 | 1.4829 ± 0.0007 | 1.48 ± 0.0007 | 1.4771 ± 0.0007 | 1.4742 ± 0.0007
x1 = 0.2112 | 1.4869 ± 0.0007 | 1.4842 ± 0.0007 | 1.4814 ± 0.0007 | 1.4786 ± 0.0007 | 1.4757 ± 0.0007 | 1.4729 ± 0.0007 | 1.47 ± 0.0007
x1 = 0.2858 | 1.4822 ± 0.0007 | 1.4795 ± 0.0007 | 1.4768 ± 0.0007 | 1.474 ± 0.0007 | 1.4712 ± 0.0007 | 1.4684 ± 0.0007 | 1.4655 ± 0.0007
x1 = 0.3552 | 1.4775 ± 0.0007 | 1.4749 ± 0.0007 | 1.4722 ± 0.0007 | 1.4695 ± 0.0007 | 1.4668 ± 0.0007 | 1.464 ± 0.0007 | 1.4613 ± 0.0007
x1 = 0.4361 | 1.4719 ± 0.0006 | 1.4693 ± 0.0007 | 1.4667 ± 0.0007 | 1.464 ± 0.0007 | 1.4614 ± 0.0007 | 1.4587 ± 0.0007 | 1.456 ± 0.0007
x1 = 0.5064 | 1.4668 ± 0.0006 | 1.4643 ± 0.0007 | 1.4617 ± 0.0007 | 1.4591 ± 0.0007 | 1.4565 ± 0.0007 | 1.4539 ± 0.0007 | 1.4512 ± 0.0007
x1 = 0.5819 | 1.4611 ± 0.0006 | 1.4586 ± 0.0006 | 1.4561 ± 0.0006 | 1.4536 ± 0.0007 | 1.451 ± 0.0007 | 1.4484 ± 0.0007 | 1.4458 ± 0.0007
x1 = 0.6506 | 1.4557 ± 0.0006 | 1.4533 ± 0.0006 | 1.4508 ± 0.0006 | 1.4483 ± 0.0006 | 1.4458 ± 0.0006 | 1.4433 ± 0.0006 | 1.4408 ± 0.0007
x1 = 0.7212 | 1.4499 ± 0.0006 | 1.4475 ± 0.0006 | 1.4451 ± 0.0006 | 1.4427 ± 0.0006 | 1.4403 ± 0.0006 | 1.4378 ± 0.0006 | 1.4353 ± 0.0007
x1 = 0.7903 | 1.444 ± 0.0006 | 1.4417 ± 0.0006 | 1.4393 ± 0.0006 | 1.437 ± 0.0006 | 1.4346 ± 0.0006 | 1.4322 ± 0.0006 | 1.4298 ± 0.0006
x1 = 0.864 | 1.4374 ± 0.0006 | 1.4352 ± 0.0006 | 1.4329 ± 0.0006 | 1.4306 ± 0.0006 | 1.4283 ± 0.0006 | 1.426 ± 0.0006 | 1.4236 ± 0.0006
x1 = 0.9336 | 1.431 ± 0.0006 | 1.4288 ± 0.0006 | 1.4266 ± 0.0006 | 1.4244 ± 0.0006 | 1.4222 ± 0.0006 | 1.4199 ± 0.0006 | 1.4176 ± 0.0006
x1 = 1 | 1.4245 ± 0.0006 | 1.4224 ± 0.0006 | 1.4203 ± 0.0006 | 1.4182 ± 0.0006 | 1.4161 ± 0.0006 | 1.4139 ± 0.0006 | 1.4117 ± 0.0006

C1COCCO1 [1,4-dioxane] + c1ccccc1
refractive index
Conditions | 288.15 K | 293.15 K | 298.15 K | 303.15 K | 308.15 K | 313.15 K | 318.15 K
x1 = 0.0713 | 1.4982 ± 0.0007 | 1.4951 ± 0.0007 | 1.4921 ± 0.0007 | 1.489 ± 0.0007 | 1.4859 ± 0.0007 | 1.4829 ± 0.0007 | 1.4798 ± 0.0007
x1 = 0.1403 | 1.4924 ± 0.0007 | 1.4894 ± 0.0007 | 1.4864 ± 0.0007 | 1.4834 ± 0.0007 | 1.4803 ± 0.0007 | 1.4773 ± 0.0007 | 1.4743 ± 0.0007
x1 = 0.2123 | 1.4864 ± 0.0007 | 1.4835 ± 0.0007 | 1.4805 ± 0.0007 | 1.4775 ± 0.0007 | 1.4746 ± 0.0007 | 1.4716 ± 0.0007 | 1.4686 ± 0.0007
x1 = 0.2809 | 1.4807 ± 0.0007 | 1.4778 ± 0.0007 | 1.4749 ± 0.0007 | 1.472 ± 0.0007 | 1.4691 ± 0.0007 | 1.4662 ± 0.0007 | 1.4633 ± 0.0007
x1 = 0.3528 | 1.4748 ± 0.0007 | 1.472 ± 0.0007 | 1.4692 ± 0.0007 | 1.4663 ± 0.0007 | 1.4635 ± 0.0007 | 1.4607 ± 0.0007 | 1.4578 ± 0.0007
x1 = 0.4195 | 1.4694 ± 0.0007 | 1.4666 ± 0.0007 | 1.4639 ± 0.0007 | 1.4611 ± 0.0007 | 1.4583 ± 0.0007 | 1.4556 ± 0.0007 | 1.4528 ± 0.0007
x1 = 0.5037 | 1.4626 ± 0.0007 | 1.4599 ± 0.0007 | 1.4573 ± 0.0007 | 1.4546 ± 0.0007 | 1.4519 ± 0.0007 | 1.4492 ± 0.0007 | 1.4465 ± 0.0007
x1 = 0.58 | 1.4565 ± 0.0007 | 1.4539 ± 0.0007 | 1.4513 ± 0.0007 | 1.4487 ± 0.0007 | 1.4461 ± 0.0007 | 1.4435 ± 0.0007 | 1.4409 ± 0.0007
x1 = 0.6504 | 1.451 ± 0.0007 | 1.4484 ± 0.0007 | 1.4459 ± 0.0006 | 1.4434 ± 0.0006 | 1.4409 ± 0.0007 | 1.4383 ± 0.0007 | 1.4357 ± 0.0007
x1 = 0.7197 | 1.4456 ± 0.0006 | 1.4432 ± 0.0006 | 1.4407 ± 0.0006 | 1.4382 ± 0.0006 | 1.4358 ± 0.0006 | 1.4332 ± 0.0007 | 1.4307 ± 0.0006
x1 = 0.7822 | 1.4408 ± 0.0006 | 1.4384 ± 0.0006 | 1.436 ± 0.0006 | 1.4336 ± 0.0006 | 1.4312 ± 0.0006 | 1.4287 ± 0.0006 | 1.4263 ± 0.0006
x1 = 0.8561 | 1.4352 ± 0.0006 | 1.4329 ± 0.0006 | 1.4306 ± 0.0006 | 1.4283 ± 0.0006 | 1.426 ± 0.0006 | 1.4236 ± 0.0006 | 1.4212 ± 0.0006
x1 = 0.9287 | 1.4298 ± 0.0006 | 1.4276 ± 0.0006 | 1.4254 ± 0.0006 | 1.4232 ± 0.0006 | 1.421 ± 0.0006 | 1.4187 ± 0.0006 | 1.4164 ± 0.0006
x1 = 1 | 1.4245 ± 0.0006 | 1.4224 ± 0.0006 | 1.4203 ± 0.0006 | 1.4182 ± 0.0006 | 1.4161 ± 0.0006 | 1.4139 ± 0.0006 | 1.4117 ± 0.0006
